Data taken from patent US5348965A, “N-substituted azaheterocyclic carboxylic acids” (Novo Nordisk A/S, priority 1991, dated 1994).
Structures can show the parent of a compound that is named as a salt.

Columns and labels:
[1] = tested on: GABA uptake; details: oral; Yunger et al., J. Pharm. Exp. Ther. 1984, 228, 109; cited from earlier work
[2] = tested on: [^3 H]-GABA uptake; assay: in vitro inhibition of [^3 H]-GABA uptake (method of Fjalland); assay type: biochemical; details: Male wistar rat cortical tissue homogenate; tris HCl buffer pH 7.5; 60 minutes at 30° C.
Method: Values for in vitro inhibition of [^3 H]-GABA uptake for the invention compounds were assessed essentially by the method of Fjalland (Acta Pharmacol. Toxicol. 1978, 42, 73-76). Male wistar rat cortical tissue was gently homogenized by hand using a glass/PTFE homogenizer in 10 volumes of 0.32 M sucrose. Incubation was performed in a 40 mM tris HCl buffer (pH 7.5 at 30° C.) containing […], 4 mM MgSO4, […] and 10 mM glucose, for 60 minutes at 30° C. Values for inhibition of GABA uptake for some representative compounds are recorded in Table I.

[3] = tested on: GABA uptake; details: from the synaptic cleft into presynaptic nerve terminals and glial cells; cited from earlier work

## O=C(O)C1=CCCN(CCC=C(c2ccccc2)c2ccccc2)C1 [SK&F 100330A, N-(4,4-diphenyl-3-buten-1-yl)guvacine]
[1]
  orally active inhibition of GABA uptake: orally active inhibitors of GABA uptake

## O=C(O)[C@@H]1CCCN(CCON=C2c3ccccc3CCc3ccccc32)C1 [Example 7, (R)-N-(2-(((10,11-Dihydro-5H-dibenzo[a,d]cyclohepten-5-ylidene)amino)oxy)ethyl)-3-piperidinecarboxylic acid hydrochloride]
[2]
  IC50: 1130 nM

## O=C(O)C1CCCNC1 (centres unmarked) [3-piperidinecarboxylic acid]
[3]
  inhibition of GABA uptake: potent inhibitor of GABA uptake

## O=C(O)[C@@H]1CCCN(CCOCCN2c3ccccc3CCc3ccccc32)C1 [Example 1, (R)-N-(2-(2-(10,11-Dihydro-5H-dibenz[b,f]azepin-5-yl)ethoxy)ethyl)-3-piperidinecarboxylic acid hydrochloride]
[2]
  IC50: 222 nM

## O=C(O)[C@@H]1CCCN(CCOCCN2c3ccccc3Sc3ccccc32)C1 [Example 2a, (R)-N-(2-(2-(10H-Phenothiazin-10-yl)ethoxy)ethyl)-3-piperidinecarboxylic acid hydrochloride]
[2]
  IC50: 306 nM

## O=C(O)C1CCCN(CCC=C(c2ccccc2)c2ccccc2)C1 (centres unmarked) [SK&F 89976A, N-(4,4-diphenyl-3-buten-1-yl)nipecotic acid]
[1]
  orally active inhibition of GABA uptake: orally active inhibitors of GABA uptake

## O=C(O)[C@@H]1CCCN(CCCOCC=C2c3ccccc3CCc3ccccc32)C1 [Example 5, (R)-N-(3-(2-(10,11-Dihydro-5H-dibenzo[a,d]cyclohepten-5-ylidene)ethoxy)-1-propyl)-3-piperidinecarboxylic acid hydrochloride]
[2]
  IC50: 900 nM

## O=C(O)[C@@H]1CCCN(CCOCCN2c3ccccc3Sc3ccc(Cl)cc32)C1 [Example 2c, (R)-N-(2-(2-(2-Chloro-10H-phenothiazin-10-yl)ethoxy)ethyl)-3-piperidinecarboxylic acid hydrochloride]
[2]
  IC50: 119 nM

## O=C(O)[C@@H]1CCCN(CCOCC=C2c3ccccc3CCc3ccccc32)C1 [Example 3, (R)-N-(2-(2-(10,11-Dihydro-5H-dibenzo[a,d]cyclohepten-5-ylidene)ethoxy)ethyl)-3-piperidinecarboxylic acid hydrochloride]
[2]
  IC50: 754 nM

## O=C(O)C1CCCN(CCC=C(c2ccccc2)c2cccs2)C1 (centres unmarked) [SK&F 100604J, N-(4-phenyl-4-(2-thienyl)-3-buten-1-yl)nipecotic acid]
[1]
  orally active inhibition of GABA uptake: orally active inhibitors of GABA uptake

## O=C(O)CC1CCN(CCC=C(c2ccccc2)c2ccccc2)C1 (stereo not drawn) [SK&F 100561, N-(4,4-diphenyl-3-buten-1-yl)-homo-β-proline]
[1]
  orally active inhibition of GABA uptake: orally active inhibitors of GABA uptake
